# Measurements published in patent publication US20190185509A1, “2'2' CYCLIC DINUCLEOTIDES WITH PHOSPHONATE BOND ACTIVATING THE STING ADAPTOR PROTEIN” (INSTITUTE OF ORGANIC CHEMISTRY AND BIOCHEMISTRY ASCR, V.V.I., priority 2017, published 2019).
# How the values were obtained:
# [1] = target: T1, AQ STING (G230A-R293Q) (Homo sapiens, UniProt Q86WV6, G230A/H232R/R293Q); assay: Differential Scanning Fluorimetry (DSF) with AQ STING; format: binding; conditions: thermal shift vs apoprotein; truncated human AQ STING 0.1 mg/ml; 150 μM CDN
# T1 construct: truncated human WT STING or AQ STING (amino acid residues 140-343) with N-terminal 8×His and SUMO tag; 8xHis-SUMO (N, cleaved yes); made in house; host or cells: E. coli Rosetta-gami B (DE3)
# Method: (§1) WT STING and AO STING Proteins
# (§2) Purified PCR products were cleaved with restriction enzymes BamHI (cat. #R0136S, NEB, Ipswich, USA) and NotI (cat. #R0189S, NEB, Ipswich, USA) and cloned into the pSUMO vector linearized with the identical enzymes.
# (§3) DNase I (cat. #D5025, Sigma Aldrich, Czech Republic) and RNase A (cat. #R6513, Sigma Aldrich, Czech Republic) were added (final concentration 50 μg/ml) together with MgCl2 (final concentration 5 mmol·l^−1) to the homogenate and bacteria were lysed using French Press G-M™ High-Pressure Cell Press Homogenizer (1500 psi, 3 cycles). […] The resin was poured into a chromatography column, washed with 50 ml buffer A (50 mmol·l^−1 TrisCl (pH 8.0), 800 mmol·l^−1 NaCl, 3 mmol·l^−1 β-mercaptol; 10% glycerol; 20 mmol·l^−1 imidazole) and 8-His-SUMO tagged STING proteins were eluted with 15 ml buffer A containing 300 mmol·l^−1 imidazole. […] Proteins were concentrated with Amicon® Ultra-15 10 K device (cat. #UFC901008, Merck Millipore, Billerica, USA) and flash frozen in liquid N2.
# (§4) Differential Scanning Fluorimetry with WT STING and AQ STING
# (§5) 20 μL solutions of the reaction mixtures were pipetted in triplicates into 96 well optical reaction plates and thermal denaturation of samples were performed on real time PCR cycler (LightCycler R 480 Instrument II-Roche, Basel, Switzerland). The first derivative of the thermal denaturation curves was performed to calculate denaturing temperatures of STING-CDN complexes and STING apoproteins. The thermal shift for each CDN was calculated by subtracting the average denaturing temperature of STING apoprotein from the average denaturing temperature of STING CDN complex.
# [2] = target: T2, WT STING (Homo sapiens, UniProt Q86WV6, H232R); assay: Digitonin assay using 293T wtSTING-FL reporter cells; format: cell-based; conditions: 293T wtSTING-FL cells, ISRE firefly luciferase reporter; 30 min in Digitonin buffer, then 5 hours; 8-point dose-response
# Description: ISRE Reporter Plasmid (pGL64.27-4×ISRE)
# Two complementary oligonucleotides of the sequence […] […] […] […] […] […] […] The oligonucleotides were mixed in equal molar amounts, hybridized, and cleaved by restriction endonucleases HindIII (cat. #. R0104S, NEB, Ipswich, USA) and BglII (cat. #R0144S, NEB, Ipswich, USA). Ultimately, they were ligated into plasmid pGL4.27 (cat. #E6651, Promega, Madison, USA) linearized with the same enzymes. As result the sequence with four ISRE sites was placed upstream of the minimum promoter of firefly luciferase reporter gene.
# After 5 minutes incubation at room temperature (RT), 250 μL of the mixture was added dropwise to the cells in one well. Cells were incubated 36 hours at 37° C. with 5% CO2, and then detached with 0.05% Trypsin and 0.22 g/L EDTA (both cat. #L0941, Biowest, Riverside, USA).
# Transfected cells were seeded onto poly-D-lysine coated six well plates at density 50,000 cells per 1 cm^2 in DMEM medium with high glucose containing 10% heat inactivated FBS, 30 μg/mL blasticidin (cat. #ant-bl-05, InvivoGen, San Diego, USA), 0.06 mg/ml Penicillin G and 0.1 mg/ml Streptomycin Sulfate (both cat. #. L0018, Biowest, Riverside, USA). The medium was replenished every 3-4 days until visible colonies of cells resistant to blasticidin were formed.
# Blasticidin resistant cells stably expressing WT STING were further transfected with pGL64.27-4×ISRE plasmid following the same procedure as described above. […] Homogeneous culture of stably double transfected cells was prepared by limiting dilution of cells in 96 well plates and wells with cells were selected that originated from a single cell.
# The medium was removed next day and three fold serial dilutions of compounds in Digitonin buffer containing 50 mmol·l^−1 HEPES (cat. #H3375, Sigma Aldrich, Czech Republic) pH 7.0, 100 mmol·l^−1 KCl, 3 mmol·l^−1 MgCl2, 0.1 mmol·l^−1 DTT (cat. #D0632, Sigma Aldrich, Czech Republic), 85 mmol·l^−1 Sucrose (cat. #S7903, Sigma Aldrich, Czech Republic), 0.2% BSA (cat. #A2153, Sigma Aldrich, Czech Republic), 1 mmol·l^−1 ATP (cat. #A1852, Sigma Aldrich, Czech Republic), 0.1 mmol·l^−1 GTP (cat. #G8877, Sigma Aldrich, Czech Republic), and 10 μg/mL Digitonin A (cat. #D141, Sigma Aldrich, Czech Republic) were added to the cells. The buffer was removed after 30 minutes incubation at 37° C. with 5% CO2, the cells were washed once with 100 μl of cultivation medium, and 100 μl of medium was added to each well. The plates with cells were incubated for 5 hours at 37° C. with 5% CO2, 50 μl of the medium was removed and 30 μl of ONE-Glo™ Luciferase Assay System reagent (cat. #E6120, Promega, Madison, USA) was added to each well. Luminescence was read on Synergy H1 (Biotek, Winooski, USA).
# Target sequence in this assay (Q86WV6 whole entry H232R): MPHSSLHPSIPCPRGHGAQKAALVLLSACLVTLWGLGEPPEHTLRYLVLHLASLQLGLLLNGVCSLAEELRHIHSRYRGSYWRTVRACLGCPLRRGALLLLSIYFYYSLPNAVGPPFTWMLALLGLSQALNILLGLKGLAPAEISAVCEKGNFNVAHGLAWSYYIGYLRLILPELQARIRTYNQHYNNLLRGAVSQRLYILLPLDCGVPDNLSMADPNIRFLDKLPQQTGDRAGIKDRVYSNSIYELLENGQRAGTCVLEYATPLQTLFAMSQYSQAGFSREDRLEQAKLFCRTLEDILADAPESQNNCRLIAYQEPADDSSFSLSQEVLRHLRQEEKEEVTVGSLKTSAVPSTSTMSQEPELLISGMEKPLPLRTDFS
# [3] = target: T2, WT STING; assay: Differential Scanning Fluorimetry (DSF) with WT STING; format: binding; set-up: truncated human WT STING or AQ STING (amino acid residues 140-343) with N-terminal 8×His and SUMO tag; 8xHis-SUMO (N, cleaved yes); made in house; host or cells: E. coli Rosetta-gami B (DE3); conditions: thermal shift vs apoprotein; truncated human WT STING 0.1 mg/ml; 150 μM CDN
# Method: as §1, §2, §3, §4, §5
# Target sequence in this assay (Q86WV6 140-343 H232R): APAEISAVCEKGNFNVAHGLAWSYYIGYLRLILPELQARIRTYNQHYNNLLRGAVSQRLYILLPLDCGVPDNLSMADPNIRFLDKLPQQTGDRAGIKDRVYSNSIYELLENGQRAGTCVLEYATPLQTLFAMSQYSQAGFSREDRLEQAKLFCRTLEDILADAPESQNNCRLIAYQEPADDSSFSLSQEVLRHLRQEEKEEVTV
# T1 sequence (Q86WV6 140-343 G230A/H232R/R293Q): as the sequence (Q86WV6 140-343 H232R) above, with G91A, R154Q counted along it
SMILES,DSF ΔTm AQ STING [1],EC50 [2],DSF ΔTm WT STING [3]
"Nc1ncnc2c1ncn2[C@@H]1O[C@@H]2OCP(=O)(O)O[C@@H]3[C@H](O)[C@@H](OCP(=O)(O)O[C@@H]1[C@@H]2O)O[C@H]3n1cnc2c(N)ncnc21 [Compound 11, (1R,6R,8R,9R,14R,16R,17S,18S)-8,16-bis(6-amino-9H-purin-9-yl)-3,11,17,18-tetrahydroxy-2,5,7,10,13,15-hexaoxa-3,11-diphosphatricyclo[12.2.1.1^6,9]octadecane 3,11-dioxide]",7.9 °C,4.2 µM,2.5 °C
"Nc1ncnc2c1ncn2[C@@H]1O[C@@H]2COP(=O)(O)O[C@@H]3[C@H](O)[C@@H](COCP(=O)(O)O[C@@H]1[C@@H]2O)O[C@H]3n1cnc2c(N)ncnc21 [Compound 12, (1R,6R,8R,9R,15R,17R,18R,19R)-8,17-bis(6-amino-9H-purin-9-yl)-3,11,18,19-tetrahydroxy-2,4,7,10,13,16-hexaoxa-3,11-diphosphatricyclo[13.2.1.1^6,9]nonadecane 3,11-dioxide]",6.3 °C,6 µM,2.0 °C
"C[C@]12OCP(=O)(O)O[C@H]3[C@H](n4cnc5c(N)ncnc54)O[C@](C)(OCP(=O)(O)O[C@@H]([C@H](n4cnc5c(N)ncnc54)O1)[C@@H]2O)[C@H]3O [Compound 13, (1R,6R,8R,9R,14R,16R,17S,18S)-8,16-bis(6-amino-9H-purin-9-yl)-3,11,17,18-tetrahydroxy-6,14-dimethyl-2,5,7,10,13,15-hexaoxa-3,11-diphosphatricyclo[12.2.1.1^6,9]octadecane 3,11-dioxide]",,,0.6 °C
"Nc1ncnc2c1ncn2[C@@H]1O[C@@H]2OCP(=O)(O)O[C@@H]3[C@H](O)[C@@H](COP(=O)(O)O[C@@H]1[C@@H]2O)O[C@H]3n1cnc2c(N)ncnc21 [Compound 14, (1R,6R,8R,9R,14R,16R,17S,18R)-8,16-bis(6-amino-9H-purin-9-yl)-3,11,17,18-tetrahydroxy-2,4,7,10,13,15-hexaoxa-3,11-diphosphatricyclo[12.2.1.1^6,9]octadecane 3,11-dioxide]",20.8 °C,2.35 µM,0.7 °C
"Nc1ncnc2c1ncn2[C@@H]1O[C@@H]2COP(=O)(O)O[C@H]3[C@H](O)[C@@H](COCP(=O)(O)O[C@@H]1[C@@H]2O)O[C@H]3n1cnc2c(N)ncnc21 [Compound 15, (1S,6R,8R,9R,15R,17R,18R,19R)-8,17-bis(6-amino-9H-purin-9-yl)-3,11,18,19-tetrahydroxy-2,4,7,10,13,16-hexaoxa-3,11-diphosphatricyclo[13.2.1.16,9]nonadecane 3,11-dioxide]",5.5 °C,16.4 µM,1.7 °C
